US20100260680A1, “NOVEL BONE MASS INCREASING AGENT” (ORIENTAL YEAST CO., LTD., priority 2007, published 2010)
Bridges are numbered along the chain shown (N, C = ends). Where no end group is shown, it is not given here.

Experiments:
[1] = tested on: RANKL knock-down MC3T3-E1 cells; assay: ALP activity in RANKL knock-down MC3T3-E1 cells; format: cell-based, mouse; conditions: KD1 and KD2; 200 μM peptide D or 200 ng/ml BMP-2; 5 days
MC3T3-E1 cells = assay: ALP activity determination in MC3T3-E1 cells; format: cell-based, mouse
Experimental: Seven days after differentiation, the culture supernatant was removed from each plate and the cells were fixed with an acetone/ethanol solution. The ALP activity was determined using p-nitrophenyl phosphate as a substrate. Specifically, a carbonate buffer (5 mM MgCl2, 50 mM NaHCO3) containing p-nitrophenyl phosphate (Nacalai) (1 mg/mL) was added to each well (100 μL/well), followed by incubation at 37° C. Then, the OD value at 405 nm was determined with the use of a microplate reader (BMG Labtech) for each well.
Cells mixed with 10% FBS+αMEM (GIBCO) were seeded on a 96-well plate (8×10^3 cells/well) and a 48-well plate (2×10^4 cells/well). The culture supernatant of each plate was replaced with 10% FBS+αMEM containing 5 mM β glycerophosphoric acid (SIGMA)+10 μg/mL sodium ascorbate (SIGMA) 48 hours later. Then, the medium was replaced with new medium every 3 or 4 days. As a control, MC3T3-E1 was cultured with the use of 10% FBS+αMEM as a maintenance medium. Upon medium replacement, a peptide was added to each plate at a concentration of 300 μM, ALP activity determination and alizarin red S staining were carried out by the method described in Example 1 on Days 7 and 21.
MC3T3-E1 cells mixed with 10% FBS+αMEM (SIGMA) were seeded on a 96-well plate (1.5×10^4 cells/well). After 12 hours, the medium was removed therefrom and a medium containing an SB203580 p38 inhibitor (Calbiochem) was added thereto. […] Then, ALP activity determination was carried out by the method described in Example 1.
Similarly, rhDkk-1 (R&D) was added as a Wnt antagonist at concentrations of 0.25, 0.5, and 1 μg/ml. After 1 hour, 200 μM peptide D was added thereto, followed by culture for 5 days. Then, ALP activity determination was carried out by the method described in Example 1.
In addition, as described above, BMPR-IA (R&D) was added as a BMP antagonist at concentrations of 0.25 and 1 μg/ml. […] Then, ALP activity determination was carried out by the method described in Example 1. […] Based on the above results, it was likely that actions of peptide D depend on BMP induction or BMP produced constantly and spontaneously by cells.
MC3T3-E1 cells mixed with 10% FBS+α MEM (SIGMA) were seeded on a 96-well plate (1.5×10^4 cells/well).
Further, peptide D and peptide E were compared with each other in terms of ALP activity enhancement actions in MC3T3-E1 cells. Peptide D and peptide E were used at concentrations of 25, 50, 100, and 200 μM for culture under the conditions described in Example 14, followed by determination of ALP activity by the method described in Example 1.
MC3T3-E1 cells (mouse osteoblast precursor cells) mixed with 10% FBS+αMEM (SIGMA) were seeded on a 96-well plate (2×10^4 cells/well). After cell adhesion, the medium was removed therefrom, followed by ALP activity determination in the cases involving the addition of 50 and 150 μM peptide D (acetate and hydrochloride). […] On Day 5 after the addition of the individual factors, the culture supernatant was removed, followed by ALP activity determination by the method described in Example 1.
MC3T3-E1 cells (mouse osteoblast precursor cells) mixed with 10% FBS+αMEM (SIGMA) were seeded on a 96-well plate (2×10^4 cells/well). After cell adhesion had taken place, the medium was removed therefrom, followed by determination of ALP activity in the cases involving the mixing of 5 ng/mLBMP-2 (produced by CHO cells) with 6.25, 12.5, 25, 50, and 100 μM synthetic peptide D. On Day 5 after the addition of the individual factors, the culture supernatant was removed, followed by ALP activity determination by the method described in Example 1.
At the end of the experiment, synergistic effects of synthetic peptide D in the form of acetate and BMP-4 (R&D) were also examined. MC3T3-E1 cells (mouse osteoblast precursor cells) mixed with 10% FBS+αMEM (SIGMA) were seeded on a 96-well plate (2×10^4 cells/well). […]

RANKL = target: T1, RANKL (Homo sapiens, UniProt O14788); conditions: Aoki et al., J Clin Invest 116: 1525, 2006; cited from earlier work
T1 sequence (O14788 140-317 limits assumed): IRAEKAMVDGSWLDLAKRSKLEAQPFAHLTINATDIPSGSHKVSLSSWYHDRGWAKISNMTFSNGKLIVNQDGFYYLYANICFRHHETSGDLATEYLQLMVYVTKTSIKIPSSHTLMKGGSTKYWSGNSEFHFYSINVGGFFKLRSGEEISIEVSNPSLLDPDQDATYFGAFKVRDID

## peptide D: cyclic peptide of SEQ ID NO: 7, 9 amino acids, two cysteine residues bound via a disulfide bond; binds to RANKL (YCWSQYLCY; disulfide 2-8 (inferred))
[1]
  ALP activity enhancement under RANKL knockdown: significantly reduced
MC3T3-E1 cells; 150 μM peptide D combined with 30 ng/mL BMP-2
  ALP activity: additive actions of ALP activity enhancement
MC3T3-E1 cells; 300 μM, Day 7 after differentiation
  ALP activity: significantly increased
MC3T3-E1 cells; 25, 50, 100 and 200 μM, 5 days
  ALP activity: enhance ALP activity in a concentration-dependent manner
MC3T3-E1 cells; 50 and 100 μM
  ALP activity, peptide D compared with peptide E: significant enhancement actions compared with peptide E
RANKL
  binding to RANKL: binds to RANKL
